Compound | melting point [°C]
COc1cc(OC)c2c(=O)cc(-c3ccccc3)oc2c1 | 147 to 149
Cc1sc2c(c1C)C(c1ccc(Cl)cc1)=NCc1nnc(C)n1-2 | > 250
CCC(=O)C1=C(O)CC(c2c(C)cc(C)c([N+](=O)[O-])c2C)CC1=O (stereo not given) | 174
O=C1Nc2cccnc2N(C(=O)N2CCC(CCCN3CCCCC3)CC2)c2ccccc21 | 200
CCCCN1NC(=O)CC2CCc3cc(N)ccc3C21 (stereo not given) | 140 to 142
CCOC(=O)Cc1ccc(-c2nc(COc3ccc(COc4nn(-c5ccccc5)cc4/C=C/c4csc(COC(=O)c5ccccc5)n4)cc3OC)c(C)o2)cc1 | 116 to 117
CC(O)Cn1cncn1 (stereo not given) | 110 to 112
N#CC1=C(C2CCNCC2)Nc2n[nH]cc2C1c1cccc(C#N)c1Br (stereo not given) | > 270
Cc1ccc(CS(=O)c2nc3cc4c(cc3[nH]2)OCO4)nc1 (stereo not given) | 185 to 187
Cc1cc(O)nc(SCC(N)=O)n1 | 238 to 240
CCOC(=O)c1cnc2nc(SCc3ccccc3)nn2c1C | 98 to 99
CCCCCc1ccc(-c2ccc(OCCCC)c(N)c2)cc1 | 38
CC(=O)OC1CCC2CCC3C(CCC4(C)C(O)C(N5CCCCC5)CC34)C2(C)C1 (stereo not given) | 162 to 166
Cc1ccc2c(c1)c1c(n2CCCl)C(=O)CCC1 | 108
CCCc1nc2c(N)nc3ccc(-c4ccc(NC(C)=O)cc4)cc3c2s1 | 251 to 254
CSC1=C(c2ccc(O)cc2)C(=O)c2cc(O)ccc21 | 90 to 92
Nc1cc(C(=O)O)cc(SCc2ccsc2)c1Oc1ccccc1 | 153 to 155
Cc1ccc(CSC[C@H](NC(=O)[C@H](C)CSC(=O)c2ccccc2)C(=O)O)cc1 | 115 to 126
Cc1nc2c(N)nc3cc(OCCC4CCN(C(=O)C(C)C)CC4)ccc3c2n1CC(C)C | 205 to 207
CN(Cc1cccc2ccccc12)c1nc(N2CCC(N(C)C)CC2)nc2c(N3CCOCC3)ncnc12 | 124 to 126
CC1C(=O)N(CC(=O)CCc2ccccc2)C1S(=O)Cc1ccccc1 (stereo not given) | 87 to 94
CCCCCCCCCCCCCCCCOCC(=O)O | 64 to 66
O=C(Cn1ncc(-c2ccccc2)c1-c1ccccc1)NCCN1CCCC1 | 80 to 84
CC(C)N1C(=O)c2ccccc2N(C(=O)c2cc(Oc3ccc(C(F)(F)F)cc3Cl)ccc2[N+](=O)[O-])S1(=O)=O | 125 to 128
CCCCN1C(=O)C(=O)C(C)=C(C#N)C1=O | 134 to 135

Compound | melting point [°C]
CCOC(=O)CS(=O)CCNC(=O)OCC (stereo not given) | 73.8 to 77
CCC1(C)SC(C)N=C1C (stereo not given) | 82
COc1cc(CCCN2CCc3cc(OC)c(OC)cc3C2)ccc1NC(=O)c1cccc2c(=O)c3c(OC)ccc(OC)c3[nH]c12 | 140
Cc1cnc(Br)c(C#N)c1 | 109 to 111
CN(C)C1CCCC1Cc1cccc(-c2cccc(N)n2)c1 (stereo not given) | 60 to 80
CSc1n[nH]c(-c2cc(C(C)(C)C)c(O)c(C(C)(C)C)c2)n1 | 271 to 272
COc1ccc(CCNC(N)=O)cc1OC1CCCC1 | 136 to 137
COc1ccc(C2(C)CCc3cc(OC)ccc3C2CCCCCCO)cc1 (stereo not given) | 76 to 83
CC12CCC3C(CCC4CC(O)CCC43C)C1CCC2C#N (stereo not given) | 156 to 158
CCOP(=O)(OCC)c1ccc(C(=O)O)cc1 | 101
O=C(c1ccccc1)c1cnn2c(-c3ccncc3)ccnc12 | 185 to 186
CN(C(c1ccccc1)c1ccccc1)S(=O)(=O)CC#N | 104 to 107
Cc1c(C(=O)Nc2ccc(N3CCC(N4CCOCC4)CC3)c(C#N)c2)cnn1-c1ccc(Br)cc1 | 250 to 252
CCn1nc(C)c2c(Cl)c(CCl)cnc21 | 96 to 97
COc1cc2c(cc1OC)S(=O)c1ccc(Cl)cc1C(N1CCN(C)CC1)C2 (stereo not given) | 178 to 179
COc1ccc(C(=O)Sc2ccc(C(=O)O)cc2)cc1C12CC3CC(CC(C3)C1)C2 | 264
CS(=O)(=O)c1ncnn1CC(O)(Cc1ccccc1Cl)C1(Cl)CC1 (stereo not given) | 125 to 128
CCOC(=O)Cc1ccc(OCc2ccccc2)c2c1OCCO2 | 86
Cc1ccc(Sc2cncc3sc(C=NOCC(N)=O)cc23)cc1 | 152 to 156
COc1ccc(-c2c(C(=O)O)oc3cc(OCc4ccc(OCc5ccc6ccccc6n5)cc4)cc(O)c3c2=O)cc1 | 195 to 196
CC(=O)c1ccc(C#Cc2ccc(C(C)=O)s2)s1 | 214
O=c1oc2ccc(O)cc2c(O)c1-c1ccccc1 | 261 to 263
COC(=O)c1ccccc1C1=NC(C)C(=S)N1 (stereo not given) | 134 to 138
CC(=O)CC(=O)OCN1C(=O)c2ccccc2C1=O | 106 to 109
CCCCOC(=O)COc1ccc(C(=O)Nc2ccccc2Sc2cc(OC)ccc2-c2nnn[nH]2)cc1 | 169 to 171
